Test results reported in US20090075951A1, “Methods and Reagents for the Treatment of Inflammatory Disorders” (CombinatoRx, Inc., priority 2003, published 2009).
Like-named read-outs stand apart in the source and are kept apart here.

How the values were obtained:
[1] = tested on: TNFα secretion from LPS stimulated white blood cells from human buffy coat; experiment: TNFα secretion assay, LPS stimulation; details: Homo sapiens, read-out: percent inhibition of TNFα secretion, LPS; for inhibition at 0.008 µM: Prednisolone 0.008 μM; for inhibition at 0.5 µM: Prednisolone 0.5 μM; for inhibition at 1 µM: Prednisolone 1 μM
Protocol: (§1) Various concentrations of each test compound were added at the time of stimulation. […] After the plate was washed with 0.1% Tween 20/PBS, an HRP-luminescent substrate was added to each well and light intensity measured using a LJL Analyst plate luminometer.

[2] = tested on: TNFα secretion from PMA/ionomycin stimulated white blood cells from human buffy coat; experiment: TNFα secretion assay, PMA/ionomycin stimulation
Protocol: as §1

[3] = Amoxapine μM r5-r13: 0,0.25,0.5,1,2,4,8,16,32
[4] = Clomipramine μM r5-r13: 0,0.45,0.89,1.8,3.6,7.1,14,28,57
[5] = Desipramine μM r5-r13: 0,0.5,1,2,4,8,16,32,64
[6] = Fluoxetine μM r5-r13: 0,0.23,0.45,0.9,1.8,3.6,7.2,14,29
[7] = Loxapine μM r5-r13: 0,0.35,0.7,1.4,2.8,5.6,11,22,45
[8] = Norclozapine μM r5-r13: 0,0.21,0.41,0.83,1.7,3.3,6.6,13,27
[9] = Nortriptyline μM r5-r13: 0,0.52,1,2.1,4.2,8.3,17,33,67

C[C@]12C=CC(=O)C=C1CC[C@@H]1[C@@H]2[C@@H](O)C[C@@]2(C)[C@H]1CC[C@]2(O)C(=O)CO [Prednisolone, prednisolone]
inhibition at 0.008 µM [1, 3]: 3.67% | inhibition at 0.008 µM [1, 4]: 2.55% | inhibition at 0.008 µM [1, 5]: 4.87% | inhibition at 0.008 µM [1, 6]: 1.18% | inhibition at 0.008 µM [1, 7]: 4.44% | inhibition at 0.008 µM [1, 8]: 18% | inhibition at 0.008 µM [1, 9]: 0.348% | inhibition at 0.5 µM [1, 3]: 59.1% | inhibition at 0.5 µM [1, 4]: 64.8% | inhibition at 0.5 µM [1, 5]: 57.6% | inhibition at 0.5 µM [1, 6]: 63.9% | inhibition at 0.5 µM [1, 7]: 68.8% | inhibition at 0.5 µM [1, 8]: 79% | inhibition at 0.5 µM [1, 9]: 51.9% | inhibition at 1 µM [1, 3]: 66.2% | inhibition at 1 µM [1, 4]: 66.9% | inhibition at 1 µM [1, 5]: 59.1% | inhibition at 1 µM [1, 6]: 71% | inhibition at 1 µM [1, 7]: 68.7% | inhibition at 1 µM [1, 8]: 83% | inhibition at 1 µM [1, 9]: 53.4% | inhibition at 0.01 µM ([2]; read-out: inhibition of TNFα secretion, Prednisolone 10 nM, Desipramine nM: 0, 50, 200, 799, 3197, 13000): -0.66% | inhibition at 0.01 µM ([2]; read-out: inhibition of TNFα secretion, Prednisolone 10 nM, Imipramine nM: 0, 99, 394, 1578, 6311, 25000): 0.037% | inhibition at 0.01 µM ([2]; read-out: inhibition of TNFα secretion, Prednisolone 10 nM, Nortriptyline nM: 0, 52, 208, 834, 3336, 13000): 4.27% | inhibition at 0.01 µM ([2]; read-out: inhibition of TNFα secretion, Prednisolone 10 nM, Protriptyline nM: 0, 52, 208, 834, 3336, 13000): 0.0342% | inhibition at […] ([2]; read-out: inhibition of TNFα secretion, Prednisolone 42 nM, Desipramine nM: 0, 50, 200, 799, 3197, 13000): 3.62% | inhibition at […] ([2]; read-out: inhibition of TNFα secretion, Prednisolone 42 nM, Imipramine nM: 0, 99, 394, 1578, 6311, 25000): 5.58% | inhibition at […] ([2]; read-out: inhibition of TNFα secretion, Prednisolone 42 nM, Nortriptyline nM: 0, 52, 208, 834, 3336, 13000): 7.41% | inhibition at 2.656 µM ([2]; read-out: inhibition of TNFα secretion, Prednisolone 2656 nM, Desipramine nM: 0, 50, 200, 799, 3197, 13000): 38.8% | inhibition at 2.656 µM ([2]; read-out: inhibition of TNFα secretion, Prednisolone 2656 nM, Imipramine nM: 0, 99, 394, 1578, 6311, 25000): 40.5% | inhibition at 2.656 µM ([2]; read-out: inhibition of TNFα secretion, Prednisolone 2656 nM, Nortriptyline nM: 0, 52, 208, 834, 3336, 13000): 38.3% | inhibition at 2.656 µM ([2]; read-out: inhibition of TNFα secretion, Prednisolone 2656 nM, Protriptyline nM: 0, 52, 208, 834, 3336, 13000): 45.2% | inhibition at 0.008 µM ([2]; read-out: percent inhibition of TNFα secretion, PMA/ionomycin, Prednisolone 0.008 μM, Amoxapine μM r5-r13: 0,0.25,0.5,1,2,4,8,16,32): -2.11% | inhibition at 0.008 µM ([2]; read-out: percent inhibition of TNFα secretion, PMA/ionomycin, Prednisolone 0.008 μM, Norclozapine μM r5-r13: 0,0.21,0.41,0.83,1.7,3.3,6.6,13,27): 17% | inhibition at 0.008 µM ([2]; read-out: percent inhibition of TNFα secretion, PMA/ionomycin, Prednisolone 0.008 μM, Nortriptyline μM r5-r13: 0,0.52,1,2.1,4.2,8.3,17,33,67): 9.54% | inhibition at 0.5 µM ([2]; read-out: percent inhibition of TNFα secretion, PMA/ionomycin, Prednisolone 0.5 μM, Amoxapine μM r5-r13: 0,0.25,0.5,1,2,4,8,16,32): 25% | inhibition at 0.5 µM ([2]; read-out: percent inhibition of TNFα secretion, PMA/ionomycin, Prednisolone 0.5 μM, Norclozapine μM r5-r13: 0,0.21,0.41,0.83,1.7,3.3,6.6,13,27): 44% | inhibition at 0.5 µM ([2]; read-out: percent inhibition of TNFα secretion, PMA/ionomycin, Prednisolone 0.5 μM, Nortriptyline μM r5-r13: 0,0.52,1,2.1,4.2,8.3,17,33,67): 29.2% | inhibition at 1 µM ([2]; read-out: percent inhibition of TNFα secretion, PMA/ionomycin, Prednisolone 1 μM, Amoxapine μM r5-r13: 0,0.25,0.5,1,2,4,8,16,32): 29.5% | inhibition at 1 µM ([2]; read-out: percent inhibition of TNFα secretion, PMA/ionomycin, Prednisolone 1 μM, Nortriptyline μM r5-r13: 0,0.52,1,2.1,4.2,8.3,17,33,67): 38.5% | inhibition at 0.008 µM ([2]; read-out: percent inhibition of TNFα secretion, Prednisolone 0.008 μM, Clomipramine μM 0, 0.45, 0.89, 1.8, 3.6, 7.1, 14, 28, 57): 7.57% | inhibition at 0.008 µM ([2]; read-out: percent inhibition of TNFα secretion, Prednisolone 0.008 μM, Desipramine μM 0, 0.5, 1, 2, 4, 8, 16, 32, 64): 3.11% | inhibition at 0.008 µM ([2]; read-out: percent inhibition of TNFα secretion, Prednisolone 0.008 μM, Fluoxetine μM by grid row: r5 0, r6 0.23, r7 0.45, r8 0.9, r9 1.8, r10 3.6, r11 7.2, r12 14, r13 29): 6.63% | inhibition at 0.008 µM ([2]; read-out: percent inhibition of TNFα secretion, Prednisolone 0.008 μM, Loxapine μM 0, 0.35, 0.7, 1.4, 2.8, 5.6, 11, 22, 45): 3.36% | inhibition at 0.01 µM ([2]; read-out: percent inhibition of TNFα secretion, Prednisolone 10 nM, Amitriptyline nM: 0, 50, 199, 796, 3186, 13000): -1.26% | inhibition at 0.01 µM ([2]; read-out: percent inhibition of TNFα secretion, Prednisolone 10 nM, Amoxapine nM: 0, 12, 50, 199, 797, 3187): 1.28% | inhibition at 0.01 µM ([2]; read-out: percent inhibition of TNFα secretion, Prednisolone 10 nM, Clomipramine nM: 0, 45, 178, 712, 2848, 11000): 0.29% | inhibition at […] ([2]; read-out: percent inhibition of TNFα secretion, Prednisolone 42 nM, Amitriptyline nM: 0, 50, 199, 796, 3186, 13000): 7.27% | inhibition at […] ([2]; read-out: percent inhibition of TNFα secretion, Prednisolone 42 nM, Amoxapine nM: 0, 12, 50, 199, 797, 3187): 7.71% | inhibition at […] ([2]; read-out: percent inhibition of TNFα secretion, Prednisolone 42 nM, Clomipramine nM: 0, 45, 178, 712, 2848, 11000): 6.83% | inhibition at 0.5 µM ([2]; read-out: percent inhibition of TNFα secretion, Prednisolone 0.5 μM, Clomipramine μM 0, 0.45, 0.89, 1.8, 3.6, 7.1, 14, 28, 57): 33.4% | inhibition at 0.5 µM ([2]; read-out: percent inhibition of TNFα secretion, Prednisolone 0.5 μM, Desipramine μM 0, 0.5, 1, 2, 4, 8, 16, 32, 64): 32.6% | inhibition at 0.5 µM ([2]; read-out: percent inhibition of TNFα secretion, Prednisolone 0.5 μM, Fluoxetine μM by grid row: r5 0, r6 0.23, r7 0.45, r8 0.9, r9 1.8, r10 3.6, r11 7.2, r12 14, r13 29): 39.3% | inhibition at 0.5 µM ([2]; read-out: percent inhibition of TNFα secretion, Prednisolone 0.5 μM, Loxapine μM 0, 0.35, 0.7, 1.4, 2.8, 5.6, 11, 22, 45): 31% | inhibition at 1 µM ([2]; read-out: percent inhibition of TNFα secretion, Prednisolone 1 μM, Clomipramine μM 0, 0.45, 0.89, 1.8, 3.6, 7.1, 14, 28, 57): 37.5% | inhibition at 1 µM ([2]; read-out: percent inhibition of TNFα secretion, Prednisolone 1 μM, Desipramine μM 0, 0.5, 1, 2, 4, 8, 16, 32, 64): 35.2% | inhibition at 1 µM ([2]; read-out: percent inhibition of TNFα secretion, Prednisolone 1 μM, Fluoxetine μM by grid row: r5 0, r6 0.23, r7 0.45, r8 0.9, r9 1.8, r10 3.6, r11 7.2, r12 14, r13 29): 30.6% | inhibition at 1 µM ([2]; read-out: percent inhibition of TNFα secretion, Prednisolone 1 μM, Loxapine μM 0, 0.35, 0.7, 1.4, 2.8, 5.6, 11, 22, 45): 34.8% | inhibition at 2.656 µM ([2]; read-out: percent inhibition of TNFα secretion, Prednisolone 2656 nM, Amitriptyline nM: 0, 50, 199, 796, 3186, 13000): 41.6% | inhibition at 2.656 µM ([2]; read-out: percent inhibition of TNFα secretion, Prednisolone 2656 nM, Amoxapine nM: 0, 12, 50, 199, 797, 3187): 39% | inhibition at 2.656 µM ([2]; read-out: percent inhibition of TNFα secretion, Prednisolone 2656 nM, Clomipramine nM: 0, 45, 178, 712, 2848, 11000): 42.1%
